Measurements reported in patent US7041461B2 (H. Lundbeck A/S, priority 1998, dated 2006).

Tests used:
Format in all cases: cell-based
SNORF2 (NPFF1) = target: T1, SNORF2 (NPFF1) (Rattus norvegicus, UniProt Q9EP86); experiment: Voltage-clamp electrophysiology in Xenopus oocytes expressing SNORF2 (NPFF1) and chimeric Gαq/z; conditions: 1 μM; oocytes with SNORF2 and Gαq/z; holding potential −80 mV
T1 construct: from linearized plasmids or PCR products containing the complete coding region of the genes; expressed in transfected cells; host or cells: Xenopus laevis oocytes injected with synthetic RNA
T1 sequence (Q9EP86 whole entry): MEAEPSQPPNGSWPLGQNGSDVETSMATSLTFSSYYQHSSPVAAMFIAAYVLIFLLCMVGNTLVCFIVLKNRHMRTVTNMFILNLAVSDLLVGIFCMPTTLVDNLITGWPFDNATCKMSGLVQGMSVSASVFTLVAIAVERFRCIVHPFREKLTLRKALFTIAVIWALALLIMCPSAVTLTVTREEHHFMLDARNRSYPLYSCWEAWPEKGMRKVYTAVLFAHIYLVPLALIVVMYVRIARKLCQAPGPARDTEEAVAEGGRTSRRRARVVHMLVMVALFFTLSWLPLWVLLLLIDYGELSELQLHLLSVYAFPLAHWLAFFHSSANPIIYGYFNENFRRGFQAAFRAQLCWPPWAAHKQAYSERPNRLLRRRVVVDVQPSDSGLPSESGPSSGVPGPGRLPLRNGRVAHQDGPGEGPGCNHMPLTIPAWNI
Description: (§1) Oocytes were harvested from Xenopus laevis and injected with mRNA transcripts as previously described (Quick and Lester, 1994; Smith et al., 1997). […] Three to eight hours prior to recording, oocytes were injected with 500 pg Gαq/z mRNA in order to observe coupling to Ca^++ activated Cl^− currents. Dual electrode voltage clamp (Axon Instruments Inc.) was performed using 3 M KCl-filled glass microelectrodes having resistances of 1–2 Mohm. Unless otherwise specified, oocytes were voltage clamped at a holding potential of −80 mV. During recordings, oocytes were bathed in continuously flowing (1–3 ml/min) medium containing 96 mM NaCl, 2 mM KCl, 1.8 mM CaCl2, 1 mM MgCl2, and 5 mM HEPES, pH 7.5 (ND96). Drugs were applied either by local perfusion from a […] glass capillary tube fixed at a distance of 0.5 mm from the oocyte, or by switching from a series of gravity fed perfusion lines.
Heterologous expression of GPCRs in Xenopus oocytes has been widely used to determine the identity of signaling pathways activated by agonist stimulation (Gundersen et al., 1983; Takahashi et al., 1987). Activation of the phospholipase C (PLC) pathway is assayed by applying test compound in ND96 solution to oocytes previously injected with mRNA for the mammalian receptor and observing inward currents at a holding potential of −80 mV. The appearance of currents that reverse at −25 mV and display other properties of the Ca^++-activated Cl^− (chloride) channel is indicative of mammalian receptor-activation of PLC and release of IP3 and intracellular Ca^++.
Control oocytes receiving only G-protein synthetic RNA were unresponsive to these peptides. […] Similarly, SNORF2-like was renamed NPFF-like.

NPFF1 (SN2) = target: T2, NPFF1 (SN2) (Rattus norvegicus, UniProt Q9EP86); experiment: Microphysiometric measurement of extracellular acidification rate in transiently transfected CHO cells; conditions: CHO cells transfected with NPFF1 alone; read-out: EC50, increase in extracellular acidification rate
T2 construct: expressed in transfected cells; host or cells: CHO (CHO-K1) cells, transient
T2 sequence (Q9EP86 whole entry): as above
Text: Microphysiometric response of CHO cells transiently transfected with either NPFF1 (SN2) alone or NPFF1 accompanied by Gq/Gz. […] In both FIGS. 17A and 17B control cells mock transfected with empty vector produced little if any response to drug even at the highest concentrations used. Responses are reported as percentage increase in the acidification rate as observed just prior to drug challenge (immediate prior basal rate).
General guidelines for transient receptor expression, cell preparation and microphysiometric recording are described elsewhere (Salon, J. A. and Owicki, J. A., 1996). Receptors and/or control vectors are transiently expressed in CHO-K1 cells, by liposome mediated transfection according to the manufacturers recommendations (Lipof ectAMINE, GibcoBRL, Gaithersburg, Md.), and maintained in Ham's F-12 complete (10% serum). […]
A standard recording protocol specifies a 100 μl/min flow rate, with a 2 min total pump cycle which includes a 30 sec flow interrruption during which the acidification rate measurement is taken. […] Ligand samples are then washed out and the acidification rates reported are expressed as a percentage increase of the peak response over the baseline rate observed just prior to challenge. […]

NPFF2 (hNPFF2) = target: T3, NPFF2 (hNPFF2) (Homo sapiens, UniProt Q9Y5X5); experiment: Voltage-clamp electrophysiology in Xenopus oocytes expressing NPFF2 (NPFF-like) and chimeric Gαq/z; conditions: 1 μM; oocytes with NPFF2 (NPFF-like) mRNA and Gαq/z; −80 mV
T3 construct: BO89, was determined to be a full length clone with no point mutations; expressed in transfected cells; host or cells: Xenopus laevis oocytes injected with synthetic mRNA
T3 sequence (Q9Y5X5 103-522): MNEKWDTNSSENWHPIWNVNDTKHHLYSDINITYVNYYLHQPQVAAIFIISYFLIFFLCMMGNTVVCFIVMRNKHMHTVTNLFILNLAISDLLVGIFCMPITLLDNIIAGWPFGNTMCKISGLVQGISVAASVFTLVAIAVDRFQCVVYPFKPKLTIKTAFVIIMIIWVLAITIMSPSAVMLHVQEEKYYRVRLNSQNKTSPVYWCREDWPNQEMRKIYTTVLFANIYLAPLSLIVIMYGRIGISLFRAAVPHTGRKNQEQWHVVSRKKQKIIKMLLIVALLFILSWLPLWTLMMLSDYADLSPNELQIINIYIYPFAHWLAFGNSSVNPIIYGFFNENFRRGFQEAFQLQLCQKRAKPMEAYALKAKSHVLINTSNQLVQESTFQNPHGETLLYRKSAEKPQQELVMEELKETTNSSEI
Description: Electrophysiological responses in voltage-clamped oocytes expressing NPFF2 mRNA. […] Oocytes were clamped at a holding potential of −80 mV.
For expression of NPFF2, mRNA transcripts were generated as described for NPFF1, using PCR products from ligation reactions or linearized DNA from B089 as DNA templates. Oocytes were injected with 5–50 ng NPFF2 mRNA and incubated as previously described.
as §1

**Q.** With H-AGEGLSSPFWSLAAPQRF-NH2 [A18Fa] as the substance, how does the inward current response (SNORF2 (NPFF1)) read?
**A.** robust inward currents

**Q.** And the EC50 (NPFF1 (SN2))?
**A.** 0.15 µM

**Q.** What about the inward current response (NPFF2 (hNPFF2)) of the same substance?
**A.** activated similar inward currents
